Assay [1] has as its target T1, ubiquitin (Schizosaccharomyces pombe, UniProt P0CH06).
T1 construct: plasmid coding for S. pombe ubiquitin with an N-terminal 6xhistidine-tag, TEV-cleavage site as well as an N-terminal free cysteine; made in house; host or cells: E. coli BL21(DE3)
Nature of the assay: Membrane-bound peptide array probed with Cy5-labeled ubiquitin. In kind it is binding, S. pombe. The settings on record: 15-mer peptides on cellulose membrane, 0.4 µM Cy5-labeled ubiquitin, 1 h, RT, fluorescence at 650 nm, mean of two membranes; compared with Pep1. From the text: Two identical membrane-bound peptide arrays, each with 50 peptide spots, were purchased from JPT peptide technologies as PepSpots™ (Germany). Here, peptides are covalently attached to a cellulose membrane with the C-terminal amino acid through a β-alanine. Each peptide spot contained approximately 2.44·10^15 molecules or 4 nmol peptides. For detection of binding, ubiquitin was labeled at the N-terminal free cysteine with Cy5 maleimide fluorophore (GE Healthcare), which has an emission maximum at 666 nm. Ubiquitin or His6-SUMO (50 µL–70 µM) was reduced with 10 times molar excess tris(2-carboxyethyl)phosphine (TCEP), and incubated with one aliquot of 10 µL, 3 mM Cy5 in dimethyl sulfoxide (DMSO) at RT for 2 h. Excess Cy5 was neutralized with 10 µL 14.3 mM βME, and the mixture was separated on a gravity flow Sepharose column (from NanoTemper Monolith Protein Labeling Kit Red-NHS (Amine Reactive)). The column was equilibrated with tris buffered saline with Tween 20 (TBS-T) buffer (20 mM Tris, 150 mM NaCl, 1 mM EDTA, 500 µL/L Tween 20, pH 7). The ubiquitin/SUMO-Cy5 mixture (73.5 µL) was loaded on the column, followed by 426.5 µL TBS-T buffer. To evaluate the concentration of ubiquitin and Cy5, the absorbance at 280 nm and 650 nm of each fraction was measured on a ND-1000 NanoDrop spectrophotometer (Thermo Fischer Scientific). Fractions where the absorbance peaked at both wavelengths simultaneously were pooled and used for the peptide array.
All wash and incubation steps were performed at RT on a rocking table. The membranes were first washed with 25 mL TBS-T buffer two times for 5 min. Next, the membranes were blocked with blocking buffer (TBS-T with 5% (w/v) skim milk powder) for 1 h and washed for 10 min in TBS-T buffer and the background signal at 650 nm acquired using a Chemidoc imager (Bio-Rad). […] After the incubation, the membranes were washed with TBS-T buffer for five times 5 min and the fluorescence signal at 650 nm acquired on the Chemidoc imager. The fluorescent signal was quantified using the image processing software ImageJ. The intensity from each peptide spot was read using the Microarray Profile plugin. The intensities acquired before adding ubiquitin were subtracted from the signals acquired after. Finally, the mean between the corresponding values from the two membranes was calculated and reported as the signal intensity for each peptide.

In assay [2] the target is ubiquitin. Particulars: read-out: Kd of known UIM sequence for ubiquitin; cited from earlier work.
Assay [3] addresses SUMO. Particulars: read-out: SUMO affinity of known SUMO interacting motif; cited from earlier work. From the text:
To investigate the binding specificity, we tested the peptides for interaction with the structurally related small ubiquitin-like modifier (SUMO), a ubiquitin-like protein also used as posttranslational modification, but involved in different signaling pathways. SUMO binds to extended stretches of residues with an interaction motif consisting of φφXφ, often followed by negatively charged residues or phosphorylation sites, where φ represents hydrophobic residues. Thus, known SUMO binding features partly overlap the features extracted above. Fluorescently labeled SUMO was added to ...

Assay [4] deals with SUMO. Nature of the assay: Membrane-bound peptide array probed with Cy5-labeled SUMO. The assay is classed as binding. Particulars: 15-mer peptides on cellulose membrane, 0.4 µM Cy5-labeled His6-SUMO, 1 h, RT, fluorescence at 650 nm, mean of two membranes. From the text: Two identical membrane-bound peptide arrays, each with 50 peptide spots, were purchased from JPT peptide technologies as PepSpots™ (Germany). Here, peptides are covalently attached to a cellulose membrane with the C-terminal amino acid through a β-alanine. Each peptide spot contained approximately 2.44·10^15 molecules or 4 nmol peptides. For detection of binding, ubiquitin was labeled at the N-terminal free cysteine with Cy5 maleimide fluorophore (GE Healthcare), which has an emission maximum at 666 nm. […] To evaluate the concentration of ubiquitin and Cy5, the absorbance at 280 nm and 650 nm of each fraction was measured on a ND-1000 NanoDrop spectrophotometer (Thermo Fischer Scientific). Fractions where the absorbance peaked at both wavelengths simultaneously were pooled and used for the peptide array.
All wash and incubation steps were performed at RT on a rocking table. […] After the incubation, the membranes were washed with TBS-T buffer for five times 5 min and the fluorescence signal at 650 nm acquired on the Chemidoc imager. The fluorescent signal was quantified using the image processing software ImageJ. The intensity from each peptide spot was read using the Microarray Profile plugin. […] Finally, the mean between the corresponding values from the two membranes was calculated and reported as the signal intensity for each peptide.

Assay [5] addresses T1, ubiquitin. Nature of the assay: NMR titration of 15N-ubiquitin (1H-15N HSQC chemical shift perturbations). Particulars: for Kd: peptide or protein titrated into 100 µM 15N-ubiquitin, 20 mM NaH2PO4, 150 mM NaCl, 5 mM TCEP, pH 7.5, global fit of CSPs to one-site-binding model. The assay is classed as binding, S. pombe.
Description: For interaction of the peptides with ^15N-ubiquitin, the lyophilized peptides were dissolved in MilliQ water and pH adjusted to 7.5. […] For the titrations of ubiquitin with each peptide, except the WT Dss1 peptide, 100 µM ubiquitin in NMR buffer was measured as one end point, and the 1 mM peptide and 100 µM ubiquitin as the other. Then, the peptide sample was titrated into the ubiquitin sample with titration points at 0, 50, 150, 300, 400, 500 and 1000 µM peptide. […] NMR samples were centrifuged 13.000×g for 5 min and transferred to either single-use 5 mm NMR tubes (Bruker) or 3 mm (Shigemi). To prepare NMR samples of ^15 N-labeled ubiquitin with full-length Dss1 and variants, lyophilized proteins were dissolved directly in the NMR buffer. The variants were each dissolved in 510 µL NMR buffer with 100 µM ubiquitin. The concentration of Dss1 in the NMR sample was determined by measuring the absorbance at 280 nm on a ND-1000 NanoDrop spectrophotometer, calibrated with the NMR buffer with 100 µM ubiquitin. The concentration of Dss1 varied between variants, depending on the purification yield. For all titrations, seven points of varying Dss1 concentration were recorded. To prepare NMR samples of ^15N-labeled ubiquitin with Spd1, Spd1 was buffer exchanged to MilliQ using a 3 kDa cut-off Amicon Ultra-0.5 ml centrifugal filter (Merk Millipore), lyophilized and resuspended in NMR buffer with 100 µM ubiquitin. […] For experiments with ubiquitin, 200 µL 1 mM ubiquitin was buffer exchanged to MilliQ water using a 3 kDa cut-off Amicon Ultra-0.5 ml centrifugal filter (Merk Millipore), lyophilized, and subsequently resuspended in 100 µL NMR buffer with 1 mM Dss1 for a final ubiquitin concentration of 2 mM and 1 mM, respectively. All samples were transferred to 3 mm (Shigemi) NMR tubes.
All NMR spectra were recorded on Bruker Avance III HD 600 MHz spectrometer with a Bruker proton-optimized quadruple resonance NMR ‘inverse’ (QCI) cryoprobe, a Bruker Avance III HD 750 MHz spectrometer with a Bruker proton-optimized triple resonance NMR ‘inverse’ (TCI) cryoprobe and a Bruker Avance Neo 800 MHz spectrometer with a Bruker carbon/nitrogen-optimized triple-resonance NMR 'observe' (TXO) cryoprobe. […] All spectra were zero-filled, apodized using cosine bells in all dimensions, Fourier transformed, and the zero-order phase was corrected manually using either nmrDraw, a component of NmrPipe or qMDD if spectra were recorded using non-linear-sampling (NLS). All spectra were analysed using the Analysis software.
The CSPs were fitted to a one-site-binding model using global fit, and the Kd-values are extracted using Eq. 2.2 Δδobs=Δδmax∙Pt+Lt+Kd-Pt+Lt+Kd^2-4Pt∙Lt^1/2/2∙Pt.
Peaks giving rise to large uncertainties in the fit, either due to weak signals or overlap, were removed after a first iteration of fitting, and the fit repeated on the remaining dataset.

“Also recorded” adds a separate entry of the source.

T1 sequence (P0CH06 1-76 limits assumed): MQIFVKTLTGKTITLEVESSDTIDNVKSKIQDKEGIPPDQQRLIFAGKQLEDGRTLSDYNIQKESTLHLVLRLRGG

As for “GDDTLWAAAWDDEDI [Pep36, 15-mer variant of Dss1 UBS1, peptide array]”, on ubiquitin [1], the “emission intensity of bound Cy5-ubiquitin (apparent affinity)” value is “reduced binding”. “IQEDWELAERLQREE [Pep46, reference compound]”: the Kd on ubiquitin [2] is 100 µM. Moreover, the “emission intensity of bound Cy5-ubiquitin (apparent affinity)” value at ubiquitin [1] is “only weak emission intensities”. Turning to LKVDVIDLTIESSSD [Pep47], the Kd on SUMO [3] is 1 µM. Besides, in the assay on SUMO [4], the “emission intensity of bound Cy5-SUMO (apparent affinity)” value is on record as “high apparent affinity”. With “GDDTFWENNWDDEDI [Pep5, 15-mer variant of Dss1 UBS1, peptide array]”, the “emission intensity of bound Cy5-ubiquitin (apparent affinity)” value on ubiquitin [1] was “increased emission intensity”. Same read-out and setting: the same measure for “GDDTLWPNPWDDEDI [Pep37, 15-mer variant of Dss1 UBS1, peptide array]”: “no or negative effects on binding”. With Ac-DDTLWWEDDWWDDED-NH2 [PepDWD], the Kd on ubiquitin [5] turned out to be 600 ± 30 µM. “GDDTLWEVNWDDEDI [Pep38, 15-mer variant of Dss1 UBS1, peptide array]”: the “emission intensity of bound Cy5-ubiquitin (apparent affinity)” value at ubiquitin [1] is “enhanced emission; also recorded: increased ubiquitin affinity”.

Turning to Ac-DLWEDDWDLWEDDWD-NH2 [PepDMD], the Kd on ubiquitin [5] was determined as 480 ± 40 µM.

Turning to Ac-DDTLWWENNWWDDED-NH2 [Pep42], at ubiquitin [5], the Kd is 1200 ± 90 µM. In addition, the “emission intensity of bound Cy5-ubiquitin (apparent affinity)” value at ubiquitin [1] was “increased emission intensity; also recorded: highest emission intensity”. Regarding Ac-GDDTLWENNWDDEDI-NH2 [Pep1], the “chemical shift perturbations (CSPs) induced in the HSQC spectrum of ubiquitin” value at ubiquitin [5] (1 mM 15-mer peptide added to 100 µM 15N-ubiquitin (120 µM for POLIIBP and ZFB)) is “much larger CSPs”. Moreover, the Kd on ubiquitin [5] came to 3000 ± 200 µM. As for Ac-DLWENNWDLWENNWD-NH2 [Pep43], the Kd on ubiquitin [5] came out at 1300 ± 120 µM. Further, the “emission intensity of bound Cy5-ubiquitin (apparent affinity)” value at ubiquitin [1] is on record as “highest emission intensity”. For “GDDDLWENNWDDEDI [Pep25, 15-mer variant of Dss1 UBS1, peptide array]”, on ubiquitin [1], the “emission intensity of bound Cy5-ubiquitin (apparent affinity)” value is “increased emission intensity”.

For “GDDTLWEPNWDDEDI [Pep40, 15-mer variant of Dss1 UBS1, peptide array]”, the “emission intensity of bound Cy5-ubiquitin (apparent affinity)” value on ubiquitin [1] is “enhanced emission”. On to “GDDTEWENNWDDEDI [Pep9, 15-mer variant of Dss1 UBS1, peptide array]”, for which, at ubiquitin [1], the “emission intensity of bound Cy5-ubiquitin (apparent affinity)” value is recorded as “increased emission intensity”.

Consider “GDDTWWENNWDDEDI [Pep11, 15-mer variant of Dss1 UBS1, peptide array]”, for which the “emission intensity of bound Cy5-ubiquitin (apparent affinity)” value on ubiquitin [1] is reported as “increased emission intensity”. With “GDDTLWENNWWDDED [Pep41, 15-mer variant of Dss1 UBS1, peptide array]”, the “emission intensity of bound Cy5-ubiquitin (apparent affinity)” value on ubiquitin [1] is reported as “increased emission intensity”. Turning to “GDDTDWENNWDDEDI [Pep8, 15-mer variant of Dss1 UBS1, peptide array]”, the “emission intensity of bound Cy5-ubiquitin (apparent affinity)” value on ubiquitin [1] is given as “increased emission intensity”. Same read-out and setting: the same measure for “GDDTLWETNWDDEDI [Pep39, 15-mer variant of Dss1 UBS1, peptide array]”: “enhanced emission; also recorded: increased ubiquitin affinity”. As to “EDPDLKAAIQESLRE [Pep45, reference compound]”, on ubiquitin [2], the Kd was 20 µM. Besides, the “emission intensity of bound Cy5-ubiquitin (apparent affinity)” value on ubiquitin [1] is reported as “only weak emission intensities”. As to GEAEERVVVISSSED [Pep48], the Kd at SUMO [3] was roughly 100 µM. The “emission intensity of bound Cy5-SUMO (apparent affinity)” value in the assay with SUMO [4] was “lower-than-average affinity”. On to “GDDTLWEDDWDDEDI [Pep20, 15-mer variant of Dss1 UBS1, peptide array]”, for which, on ubiquitin [1], the “emission intensity of bound Cy5-ubiquitin (apparent affinity)” value is given as “increased emission intensity”.

These data come from PMC9381478, “A context-dependent and disordered ubiquitin-binding motif” (Cellular and Molecular Life Sciences: CMLS, 2022).
